Assay results from patent publication US20230085307A1, “PYRIDAZINONE COMPOUND AND HERBICIDE” (NISSAN CHEMICAL CORPORATION, priority 2019, published 2023).

Columns and labels:
southern crabgrass [1] = assay: Test Example 4: herbicidal effect by soil treatment (Table 19, symbol F); format: in vivo, southern crabgrass (Digitaria ciliaris); conditions: amount of applied herbicide 320 g/ha
Method in brief: (§1)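 Emulsion of test compound, water-diluted to predetermined amount, sprayed on soil after sowing (seed depth ~1.5 cm, sterilized diluvial soil). Greenhouse, 25–30° C. Effect graded at three weeks post-spray.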

windgrass [2] = assay: Test Example 4: herbicidal effect by soil treatment (Table 19, symbol L); format: in vivo, windgrass (Apera spica-venti); conditions: amount of applied herbicide 320 g/ha
Method in brief: as §1

wild oat [3] = assay: Test Example 5: herbicidal effect by foliage application, plastic box (Table 20, symbol I); format: in vivo, wild oat (Avena fatua); conditions: 320 g/ha, evaluated three weeks after application
Method in brief: (§2)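 Post-emergence foliar test in sterilized diluvial soil. Compound applied as water-diluted emulsion at a predetermined rate to 14-day-old plants; evaluation at three weeks.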

barnyard grass [4] = assay: Test Example 5: herbicidal effect by foliage application, plastic box (Table 20, symbol H); format: in vivo, barnyard grass (Echinochloa crus-galli); conditions: 320 g/ha, evaluated three weeks after application
Method in brief: as §2

Italian ryegrass [5] = assay: Test Example 5: herbicidal effect by foliage application, plastic box (Table 20, symbol K); format: in vivo, Italian ryegrass (Lolium multiflorum); conditions: 320 g/ha, evaluated three weeks after application
Method in brief: as §2

green foxtail [6] = assay: Test Example 4: herbicidal effect by soil treatment (Table 19, symbol G); format: in vivo, green foxtail (Setaria viridis); conditions: amount of applied herbicide 320 g/ha
Method in brief: as §1

lambsquarters [7] = assay: Test Example 4: herbicidal effect by soil treatment (Table 19, symbol O); format: in vivo, lambsquarters (Chenopodium album); conditions: amount of applied herbicide 320 g/ha
Method in brief: as §1

redroot pigweed [8] = assay: Test Example 5: herbicidal effect by foliage application, plastic box (Table 20, symbol N); format: in vivo, redroot pigweed (Amaranthus retroflexus); conditions: 320 g/ha, evaluated three weeks after application
Method in brief: as §2

persian speedwell [9] = assay: Test Example 4: herbicidal effect by soil treatment (Table 19, symbol R); format: in vivo, Persian speedwell (Veronica persica); conditions: amount of applied herbicide 320 g/ha
Method in brief: as §1

Chinese sprangletop = assay: Test Example 3: herbicidal effect by foliage application, Wagner pot (Table 18, symbol D); format: in vivo, chinese sprangletop (Leptochloa chinensis)
Method in brief: (§3)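 Plants were sown in alluvial soil held under 0.1–0.5 cm standing water and grown 14 days in a greenhouse at 25–30 °C. An emulsifiable formulation, water-diluted to the set dose, was then sprayed onto the foliage, and effects were scored three weeks later using previously defined criteria.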

blackgrass [10] = assay: Test Example 4: herbicidal effect by soil treatment (Table 19, symbol J); format: in vivo, blackgrass (Alopecurus myosuroides); conditions: amount of applied herbicide 320 g/ha
Method in brief: as §1

chickweed [11] = assay: Test Example 5: herbicidal effect by foliage application, plastic box (Table 20, symbol P); format: in vivo, common chickweed (Stellaria media); conditions: 320 g/ha, evaluated three weeks after application
Method in brief: as §2

persian speedwell [12] = assay: Test Example 5: herbicidal effect by foliage application, plastic box (Table 20, symbol R); format: in vivo, Persian speedwell (Veronica persica); conditions: 320 g/ha, evaluated three weeks after application
Method in brief: as §2

barnyard grass [13] = assay: Test Example 4: herbicidal effect by soil treatment (Table 19, symbol H); format: in vivo, barnyard grass (Echinochloa crus-galli); conditions: amount of applied herbicide 320 g/ha
Method in brief: as §1

Italian ryegrass [14] = assay: Test Example 4: herbicidal effect by soil treatment (Table 19, symbol K); format: in vivo, Italian ryegrass (Lolium multiflorum); conditions: amount of applied herbicide 320 g/ha
Method in brief: as §1

green foxtail [15] = assay: Test Example 5: herbicidal effect by foliage application, plastic box (Table 20, symbol G); format: in vivo, green foxtail (Setaria viridis); conditions: 320 g/ha, evaluated three weeks after application
Method in brief: as §2

southern crabgrass [16] = assay: Test Example 5: herbicidal effect by foliage application, plastic box (Table 20, symbol F); format: in vivo, southern crabgrass (Digitaria ciliaris); conditions: 320 g/ha, evaluated three weeks after application
Method in brief: as §2

barnyard grass [17] = assay: Test Example 3: herbicidal effect by foliage application, Wagner pot (Table 18, symbol H); format: in vivo, barnyard grass (Echinochloa crus-galli)
Method in brief: as §3

velvetleaf [18] = assay: Test Example 5: herbicidal effect by foliage application, plastic box (Table 20, symbol M); format: in vivo, velvetleaf (Abutilon theophrasti); conditions: 320 g/ha, evaluated three weeks after application
Method in brief: as §2

chickweed [19] = assay: Test Example 4: herbicidal effect by soil treatment (Table 19, symbol P); format: in vivo, common chickweed (Stellaria media); conditions: amount of applied herbicide 320 g/ha
Method in brief: as §1

rice flat sedge = assay: Test Example 3: herbicidal effect by foliage application, Wagner pot (Table 18, symbol E); format: in vivo, rice flat sedge (Cyperus iria)
Method in brief: as §3

windgrass [20] = assay: Test Example 5: herbicidal effect by foliage application, plastic box (Table 20, symbol L); format: in vivo, windgrass (Apera spica-venti); conditions: foliage application, 320 g/ha, evaluated three weeks after application
Method in brief: as §2

lambsquarters [21] = assay: Test Example 5: herbicidal effect by foliage application, plastic box (Table 20, symbol O); format: in vivo, lambsquarters (Chenopodium album); conditions: 320 g/ha, evaluated three weeks after application
Method in brief: as §2

wild oat [22] = assay: Test Example 4: herbicidal effect by soil treatment (Table 19, symbol I); format: in vivo, wild oat (Avena fatua); conditions: amount of applied herbicide 320 g/ha
Method in brief: as §1

blackgrass [23] = assay: Test Example 5: herbicidal effect by foliage application, plastic box (Table 20, symbol J); format: in vivo, blackgrass (Alopecurus myosuroides); conditions: 320 g/ha, evaluated three weeks after application
Method in brief: as §2

velvetleaf [24] = assay: Test Example 4: herbicidal effect by soil treatment (Table 19, symbol M); format: in vivo, velvetleaf (Abutilon theophrasti); conditions: amount of applied herbicide 320 g/ha
Method in brief: as §1

redroot pigweed [25] = assay: Test Example 4: herbicidal effect by soil treatment (Table 19, symbol N); format: in vivo, redroot pigweed (Amaranthus retroflexus); conditions: amount of applied herbicide 320 g/ha
Method in brief: as §1

[26] = amount of applied herbicide 320 g/ha
[27] = foliage application after 14-day growth

## CCCC(=O)Oc1c(C)nn(C)c(=O)c1-c1c(-c2ccc(C#N)cc2)sc2ccc(C)cc12 [2-147]
Southern crabgrass [1]
  F: southern crabgrass, herbicidal effect rating: 0 (Herbicidal rate of 5% or less (almost no effect))
Windgrass [2]
  L: windgrass, herbicidal effect rating: 0 (Herbicidal rate of 5% or less (almost no effect))
Wild oat [3]; foliage application
  herbicidal effect on I: wild oat (criteria 0-5): 0 (Herbicidal rate of 5% or less (almost no effect))
Barnyard grass [4]; foliage application
  herbicidal effect on H: barnyard grass (criteria 0-5): 0 (Herbicidal rate of 5% or less (almost no effect))
Italian ryegrass [5]; foliage application
  herbicidal effect on K: Italian ryegrass (criteria 0-5): 0 (Herbicidal rate of 5% or less (almost no effect))
Green foxtail [6]
  G: green foxtail, herbicidal effect rating: 0 (Herbicidal rate of 5% or less (almost no effect))
Lambsquarters [7]
  O: lambsquarters, herbicidal effect rating: 0 (Herbicidal rate of 5% or less (almost no effect))
Redroot pigweed [8]; foliage application
  herbicidal effect on N: redroot pigweed (criteria 0-5): 5 (Herbicidal rate of 90% or more (almost completely withered))
Persian speedwell [9]
  R: persian speedwell, herbicidal effect rating: 5 (Herbicidal rate of 90% or more (almost completely withered))
Chinese sprangletop; [26]
  herbicidal effect on D: Chinese sprangletop: 0 (Herbicidal rate of 5% or less (almost no effect))
Blackgrass [10]
  J: blackgrass, herbicidal effect rating: 0 (Herbicidal rate of 5% or less (almost no effect))
Chickweed [11]; foliage application
  herbicidal effect on P: chickweed (criteria 0-5): 5 (Herbicidal rate of 90% or more (almost completely withered))
Persian speedwell [12]; foliage application
  herbicidal effect on R: persian speedwell (criteria 0-5): 5 (Herbicidal rate of 90% or more (almost completely withered))
Barnyard grass [13]
  H: barnyard grass, herbicidal effect rating: 0 (Herbicidal rate of 5% or less (almost no effect))
Italian ryegrass [14]
  K: Italian ryegrass, herbicidal effect rating: 0 (Herbicidal rate of 5% or less (almost no effect))
Green foxtail [15]; foliage application
  herbicidal effect on G: green foxtail (criteria 0-5): 0 (Herbicidal rate of 5% or less (almost no effect))
Southern crabgrass [16]; foliage application
  herbicidal effect on F: southern crabgrass (criteria 0-5): 0 (Herbicidal rate of 5% or less (almost no effect))
Barnyard grass [17]; [26]
  herbicidal effect on H: barnyard grass: 1 (Herbicidal rate of 5% or more and less than 20%)
Velvetleaf [18]; foliage application
  herbicidal effect on M: velvetleaf (criteria 0-5): 4 (Herbicidal rate of 70% or more and less than 90%)
Chickweed [19]
  P: chickweed, herbicidal effect rating: 4 (Herbicidal rate of 70% or more and less than 90%)
Rice flat sedge; [26]
  herbicidal effect on E: rice flat sedge: 5 (Herbicidal rate of 90% or more (almost completely withered))
Windgrass [20]
  herbicidal effect on L: windgrass (criteria 0-5): 0 (Herbicidal rate of 5% or less (almost no effect))
Lambsquarters [21]; foliage application
  herbicidal effect on O: lambsquarters (criteria 0-5): 3 (Herbicidal rate of 40% or more and less than 70%)
Wild oat [22]
  I: wild oat, herbicidal effect rating: 0 (Herbicidal rate of 5% or less (almost no effect))
Blackgrass [23]; foliage application
  herbicidal effect on J: blackgrass (criteria 0-5): 0 (Herbicidal rate of 5% or less (almost no effect))
Velvetleaf [24]
  M: velvetleaf, herbicidal effect rating: 0 (Herbicidal rate of 5% or less (almost no effect))

## Cc1nn(C)c(=O)c(-c2c(-c3ccc(F)cc3)sc3c(F)cccc23)c1O [4-001]
Redroot pigweed [25]
  Herbicidal effect by soil treatment, N: redroot pigweed: 2 (Herbicidal rate of 20% or more and less than 40%)
Southern crabgrass [1]
  Herbicidal effect by soil treatment, F: southern crabgrass: 0 (Herbicidal rate of 5% or less (almost no effect))
Windgrass [2]
  Herbicidal effect by soil treatment, L: windgrass: 0 (Herbicidal rate of 5% or less (almost no effect))
Wild oat [3]; [27]
  herbicidal effect on I: wild oat (evaluation grade 0-5): 0 (Herbicidal rate of 5% or less (almost no effect))
Barnyard grass [4]; [27]
  herbicidal effect on H: barnyard grass (evaluation grade 0-5): 2 (Herbicidal rate of 20% or more and less than 40%)
Italian ryegrass [5]; [27]
  herbicidal effect on K: Italian ryegrass (evaluation grade 0-5): 2 (Herbicidal rate of 20% or more and less than 40%)
Green foxtail [6]
  Herbicidal effect by soil treatment, G: green foxtail: 0 (Herbicidal rate of 5% or less (almost no effect))
Lambsquarters [7]
  Herbicidal effect by soil treatment, O: lambsquarters: 5 (Herbicidal rate of 90% or more (almost completely withered))
Redroot pigweed [8]; [27]
  herbicidal effect on N: redroot pigweed (evaluation grade 0-5): 3 (Herbicidal rate of 40% or more and less than 70%)
Persian speedwell [9]
  Herbicidal effect by soil treatment, R: persian speedwell: 4 (Herbicidal rate of 70% or more and less than 90%)
Chinese sprangletop; 320 g/ha
  herbicidal effect on Chinese sprangletop (D): 3 (Herbicidal rate of 40% or more and less than 70%)
Blackgrass [10]
  Herbicidal effect by soil treatment, J: blackgrass: 0 (Herbicidal rate of 5% or less (almost no effect))
Chickweed [11]; [27]
  herbicidal effect on P: chickweed (evaluation grade 0-5): 5 (Herbicidal rate of 90% or more (almost completely withered))
Persian speedwell [12]; [27]
  herbicidal effect on R: persian speedwell (evaluation grade 0-5): 5 (Herbicidal rate of 90% or more (almost completely withered))
Barnyard grass [13]
  Herbicidal effect by soil treatment, H: barnyard grass: 0 (Herbicidal rate of 5% or less (almost no effect))
Italian ryegrass [14]
  Herbicidal effect by soil treatment, K: Italian ryegrass: 0 (Herbicidal rate of 5% or less (almost no effect))
Green foxtail [15]; [27]
  herbicidal effect on G: green foxtail (evaluation grade 0-5): 4 (Herbicidal rate of 70% or more and less than 90%)
Southern crabgrass [16]; [27]
  herbicidal effect on F: southern crabgrass (evaluation grade 0-5): 0 (Herbicidal rate of 5% or less (almost no effect))
Barnyard grass [17]; 320 g/ha
  herbicidal effect on barnyard grass (H): 4 (Herbicidal rate of 70% or more and less than 90%)
Velvetleaf [18]; [27]
  herbicidal effect on M: velvetleaf (evaluation grade 0-5): 5 (Herbicidal rate of 90% or more (almost completely withered))
Chickweed [19]
  Herbicidal effect by soil treatment, P: chickweed: 4 (Herbicidal rate of 70% or more and less than 90%)
Rice flat sedge; 320 g/ha
  herbicidal effect on rice flat sedge (E): 5 (Herbicidal rate of 90% or more (almost completely withered))
Lambsquarters [21]; [27]
  herbicidal effect on O: lambsquarters (evaluation grade 0-5): 2 (Herbicidal rate of 20% or more and less than 40%)
Wild oat [22]
  Herbicidal effect by soil treatment, I: wild oat: 0 (Herbicidal rate of 5% or less (almost no effect))
Blackgrass [23]; [27]
  herbicidal effect on J: blackgrass (evaluation grade 0-5): 2 (Herbicidal rate of 20% or more and less than 40%)
Velvetleaf [24]
  Herbicidal effect by soil treatment, M: velvetleaf: 3 (Herbicidal rate of 40% or more and less than 70%)
